Reference: patent US4371545A, “Isopropyl amine compounds” (Dolorgiet Beteiligungs GmbH, priority 1978, dated 1983)

Tests used:
[1] = system: β-adrenergic; test: β-adrenergic blocking activity in mammals; format: in vivo; settings: mammals such as mice, rats and cats
Source text: It is also to be expected that the above compound will have similar effects when administered to humans.

[2] = Acute toxicity (Litchfield and Wilcoxon); settings: in vivo
Experimental: The acute toxicity of the inventive compound is determined by the method of Litchfield and Wilcoxon (J. Pharmacol. exp. Therap., 96 (1949), 99).

[3] = system: isoprenalin-induced tachycardia; test: Inhibition of isoprenalin-induced tachycardia in anaesthetized cats; format: in vivo, cat; settings: for ED50: Felis catus, iv, graphic extrapolation on dose-effect curve, read-out: ED50 (reduction of isoprenalin-induced tachycardia by 50%)
Experimental: A comparative screening test was conducted on anaestetized cats suffering from isoprenalin-induced tachycardia.
(§1) To provide an informative determination of the ED50 of the test preparation on isoprenalin-induced tachycardia of anaesthetized cats as well as qualitative determination of the characteristic effect of the preparation on blood pressure and heart beat frequency in resting position.
3.2 Test animals: male and female cats,
weighing 1.6 to 3.2 kg, un-
(§2) Anaesthetic: hexobarbital (Evipan-Na),
Respiration: spontaneous after tracheo-
femoralis for injection of
the test preparations; ca-
(§3) theterization of A. femo-
(§4) ralis for measuring arterial
(§5) blood pressure; blood coagu-
sodium heparinate, 600 units
(§6) phase and mean blood press-
(§7) ure, using a Statham press-
(§8) ure gauge and an HSE elec-
(§9) tromanometer; heart frequency
(§10) by means of the pulse wave
(§11) interval, using an HSE-EKA
(§12) sphygmograph or HSE frequency
3.3.2 Administration of the
Isoprenalin: i.v. injection; dose 0.3 to
1 μg/kg; volume administer-
ed: 0.1 ml/kg; intervals bet-
ween injections; 10 min.
i.v. injections, each 4 min.
prior to the next isoprenalin
injection; dosage range: 10
to 100 μg/kg and, respect.,
injection time: 10 sec.
3.3.3 Criteria determining
percentage reduction in iso-
prenalin-induced tachycardia;
measured at maximum efficien-
cy (4 min. after injection).
ED50 is determined by graph-
ic extrapolation on the
curves showing the effect-
iveness of the dose admini-
stered. ED50 means the dose
(μg/kg i.v.) required for
reducing tachycardia by
50% as compared to the ori-
Table 1 informs on the results of the above experiments. The quantitative criteria in this table are: reduction of isoprenalin-induced tachycardia in percent; ED50 determined by graphic extrapolation on the curve showing the effectiveness of the respective dose; and relative activity which may be calculated as quotient from the ED50 (μg/kg) of propranolol and the ED50 of the test preparation.

[4] = system: heart beat frequency in resting position; test: Effect on heart beat frequency in resting position in anaesthetized cats; format: in vivo, cat; settings: for HR norm (bradycardial effect, heart beat frequency in resting position): anaesthetized cats, i.v., qualitative, 10 to 100 ug/kg
Source text: as §1, §2, §9, §10, §11, §12
(§13) The remaining data in the table refer to the characteristic effect of the test preparation on the heart beat frequency in resting position, arterial blood pressure in resting position, and reduction of isoprenalin-induced drop in blood pressure; the respective data are more of qualitative nature.

[5] = system: isoprenalin-induced drop in arterial blood pressure; test: Reduction of isoprenalin-induced drop in arterial blood pressure in anaesthetized cats; format: in vivo, cat; settings: for m BP Isopr. (reduction in mean, isoprenalin-induced drop in arterial blood pressure): i.v., qualitative, 10 to 100 ug/kg; for isoprenalin-induced drop in arterial blood pressure: summary in words
[6] = system: mean arterial blood pressure in resting position; test: Effect on mean arterial blood pressure in resting position in anaesthetized cats; format: in vivo, cat; settings: i.v., qualitative, 10 to 100 ug/kg
Source text: as §1, §2, §3, §4, §5, §6, §7, §8, §9, §13

Row | Compound | β-adrenergic blocking activity [1] | LD50 ([2]; ip, mouse, female and male, in each case 10 female and male mice) | LD50 ([2]; iv, mouse, female and male, in each case 10 female and male mice) | LD50 ([2]; po, mouse, female and male, in each case 10 female and male mice) | LD50 ([2]; rat, ip, female and male) | LD50 ([2]; rat, iv, female) | LD50 ([2]; rat, iv, male) | LD50 ([2]; rat, po, female and male) | ED50 ([3]; anaesthetized cats) | Rel. Activity (ED50 of propranolol / ED50 of test preparation) ([3]; based on ED50 of propranolol (=1)) | beta-blocking activity in the tests on isoprenalin-induced tachycardia ([3]; compared to propranolol, anaesthetized cats) | HR norm (bradycardial effect, heart beat frequency in resting position) [4] | reduction of frequency of heart beat in resting position ([4]; depending on the original position and the dose administered) | m BP Isopr. (reduction in mean, isoprenalin-induced drop in arterial blood pressure) [5] | isoprenalin-induced drop in arterial blood pressure [5] | m BP norm (effectiveness in lowering blood pressure, mean arterial pressure in resting position) [6]
1 | Cc1ccc([N+](=O)[O-])c(OCC(O)CNC(C)C)c1.Cl (centres unmarked) [Compound of the invention, 1-(5-methyl-2-nitrophenoxy)-2-hydroxy-3-isopropylaminopropane-hydrochloride] | demonstrated | 250 mg/kg | 105 mg/kg | 1280 mg/kg | 192 mg/kg | 68.9 mg/kg | 80 mg/kg | 1120 mg/kg | 0.021 mg/kg | 2.3 | good beta-blocking activity | + - +++ and d.d. | effectively reduced | + - +++R and d.d. | reliably reduced and blocked | 
2 | CC(C)NCC(O)COc1cccc2ccccc12 (centres unmarked) [Propranolol, reference compound] |  |  |  |  |  |  |  |  | 0.048 mg/kg |  |  | + - +++ and d.d. |  | + - +++R and d.d. | reliably reduced and blocked | + - ++ and d.d.
